Measurements reported in US20240391862A1, “(1,4,5-TRISUBSTITUTED-1H-PYRAZOL-3-YL)OXY-2-ALKOXY ALKYL ACIDS AND THEIR DERIVATIVES, THEIR SALTS AND THEIR USE AS HERBICIDAL AGENTS” (Bayer AKtiengesellschaft, priority 2021, published 2024).

Key:
ABUTH = assay: Post-emergence herbicidal effect, greenhouse pot test; format: in vivo, Abutilon theophrasti; settings: visual rating about 3 weeks after treatment
Method in brief: (§1)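 Greenhouse pot plants in sandy loam receive a one-leaf-stage spray at 20 to 320 g/ha. Activity is assessed visually around 3 weeks afterwards on a 0–100% scale, where 100% means the plants have died.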

ECHCG = assay: as above; format: in vivo, Echinochloa crus-galli; settings: for Post-emergence effect against ECHCG: 20 g/ha, visual rating about 3 weeks after treatment
Method in brief: as §1

VERPE = assay: as above; format: in vivo, Veronica persica; settings: for pest or weed control at 80 g/ha / pest or weed control at 320 g/ha: Veronica persica, 504 h, read-out: Post-emergence effect against VERPE in %
Method in brief: as §1

AMARE = assay: as above; format: in vivo, Amaranthus retroflexus; settings: visual rating about 3 weeks after treatment
Method in brief: as §1

TRZAS = assay: Post-emergence herbicidal effect and crop plant compatibility, greenhouse pot test; format: in vivo, Triticum aestivum; settings: for Post-emergence effect at 20 g/ha against TRZAS in % / percent crop injury (phytotoxicity) to wheat, post-emergence at 20 g/ha: one-leaf stage, rated visually after about 3 weeks vs untreated controls; for percent crop injury (phytotoxicity) to wheat, post-emergence at 20 g/ha: Triticum aestivum, 504 h, read-out: Post-emergence effect at 20 g/ha against TRZAS in %
Method in brief: (§2)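 Visual % activity scored roughly 3 weeks post-spray against untreated plants, where 100% means death and 0% equals control. Plants were treated at the one-leaf stage, 2 to 3 weeks after sowing in sandy loam, at 20 to 320 g/ha.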

PHBPU = assay: Post-emergence herbicidal effect, greenhouse pot test; format: in vivo, Ipomoea purpurea
Method in brief: as §1

DIGSA = assay: as above; format: in vivo, Digitaria sanguinalis; settings: 320 g/ha, visual rating about 3 weeks after treatment; for pest or weed control at 320 g/ha: Digitaria sanguinalis, 504 h, read-out: Post-emergence effect against DIGSA
Method in brief: as §1

SETVI = assay: as above; format: in vivo, Setaria viridis; settings: for pest or weed control at 320 g/ha: Setaria viridis, 504 h, read-out: Post-emergence effect against SETVI in %
Method in brief: as §1

VIOTR = assay: as above; format: in vivo, Viola tricolor; settings: for pest or weed control at 320 g/ha / pest or weed control at 80 g/ha: Viola tricolor, 504 h, read-out: Post-emergence effect against VIOTR in %
Method in brief: as §1

ZEAMX = assay: Post-emergence herbicidal effect and crop plant compatibility, greenhouse pot test; format: in vivo, Zea mays; settings: 20 g/ha, one-leaf stage, rated visually after about 3 weeks vs untreated controls; for plant injury at 20 g/ha: Zea mays, 504 h, read-out: Post-emergence effect at 20 g/ha against ZEAMX in %
Method in brief: as §2

LOLRI = assay: Post-emergence herbicidal effect, greenhouse pot test; format: in vivo, Lolium rigidum; settings: 320 g/ha; for pest or weed control at 320 g/ha: Lolium rigidum, 504 h, read-out: Post-emergence effect against LOLRI in %
Method in brief: as §1

MATIN = assay: as above; format: in vivo, Tripleurospermum inodorum
Method in brief: as §1

AVEFA = assay: as above; format: in vivo, Avena fatua; settings: 320 g/ha, visual rating about 3 weeks after treatment; for pest or weed control at 320 g/ha: Avena fatua, 504 h, read-out: Post-emergence effect against AVEFA
Method in brief: as §1

POLCO = assay: as above; format: in vivo, Fallopia convolvulus
Method in brief: as §1

KCHSC = assay: as above; format: in vivo; settings: 320 g/ha
Method in brief: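 Visual rating of activity against untreated plants (100% = plants died, 0% = no effect), done about 3 weeks after treatment. Compounds applied at 20–320 g/ha as aqueous spray (600 l/ha, 0.5% additive) from WP or EC formulations onto one-leaf-stage plants grown in sandy loam under greenhouse conditions.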

ALOMY = assay: as above; format: in vivo, Alopecurus myosuroides; settings: 320 g/ha, visual rating about 3 weeks after treatment
Method in brief: as §1

[1] = Abutilon theophrasti, 504 h, 320 g/ha, read-out: Post-emergence effect against ABUTH
[2] = Echinochloa crus-galli, 504 h, 320 g/ha, read-out: Post-emergence effect against ECHCG in %
[3] = Amaranthus retroflexus, 504 h, 320 g/ha, read-out: Post-emergence effect against AMARE
[4] = Ipomoea purpurea, 504 h, 320 g/ha, read-out: Post-emergence effect against PHBPU in %
[5] = Tripleurospermum inodorum, 504 h, 320 g/ha, read-out: Post-emergence effect against MATIN in %
[6] = Fallopia convolvulus, 504 h, 320 g/ha, read-out: Post-emergence effect against POLCO in %

COC(Oc1nn(-c2ccccc2F)c(-c2ccc(F)nc2)c1Br)C(=O)O (stereo not drawn) [Example I-25]
pest or weed control at 320 g/ha (ABUTH; [1]): 80% | pest or weed control at 320 g/ha (ECHCG; [2]): 80% | pest or weed control at 80 g/ha (VERPE; 80 g/ha): 80% | pest or weed control at 320 g/ha (VERPE; 320 g/ha): 90% | pest or weed control at 80 g/ha (AMARE; Amaranthus retroflexus, 504 h, 80 g/ha, read-out: Post-emergence effect against AMARE): 80% | pest or weed control at 320 g/ha (AMARE; [3]): 90% | Post-emergence effect at 20 g/ha against TRZAS in % (TRZAS): 10% | pest or weed control at 320 g/ha (PHBPU; [4]): 90% | pest or weed control at 320 g/ha (DIGSA): 90% | pest or weed control at 320 g/ha (SETVI; 320 g/ha): 90% | pest or weed control at 320 g/ha (VIOTR; 320 g/ha): 80% | Post-emergence effect at 20 g/ha against ZEAMX in % (ZEAMX): 20% | pest or weed control at 320 g/ha (LOLRI): 90% | pest or weed control at 320 g/ha (MATIN; [5]): 80%

COC(Oc1nn(-c2cc(F)ccc2F)c(-c2cncc(F)c2)c1Br)C(=O)O (stereo not drawn) [Example I-32]
pest or weed control at 80 g/ha (ABUTH; Abutilon theophrasti, 504 h, 80 g/ha, read-out: Post-emergence effect against ABUTH): 80% | pest or weed control at 320 g/ha (ABUTH; [1]): 90% | pest or weed control at 80 g/ha (ECHCG; Echinochloa crus-galli, 504 h, 80 g/ha, read-out: Post-emergence effect against ECHCG in %): 90% | pest or weed control at 320 g/ha (ECHCG; [2]): 90% | pest or weed control at 80 g/ha (VERPE; 80 g/ha): 90% | pest or weed control at 320 g/ha (VERPE; 320 g/ha): 90% | pest or weed control at 320 g/ha (AVEFA): 90% | pest or weed control at 320 g/ha (POLCO; [6]): 80% | pest or weed control at 320 g/ha (AMARE; [3]): 80% | percent crop injury (phytotoxicity) to wheat, post-emergence at 20 g/ha (TRZAS): 10% | pest or weed control at 320 g/ha (PHBPU; [4]): 90% | pest or weed control at 320 g/ha (DIGSA): 90% | pest or weed control at 320 g/ha (SETVI; 320 g/ha): 90% | pest or weed control at 80 g/ha (VIOTR; 80 g/ha): 90% | pest or weed control at 320 g/ha (VIOTR; 320 g/ha): 90% | plant injury at 20 g/ha (ZEAMX): 10% | pest or weed control at 320 g/ha (LOLRI): 90% | pest or weed control at 80 g/ha (MATIN; Tripleurospermum inodorum, 504 h, 80 g/ha, read-out: Post-emergence effect against MATIN in %): 90% | pest or weed control at 320 g/ha (MATIN; [5]): 90%

COC(=O)C(OC)Oc1nn(-c2cccc(C)c2F)c(-c2ccc(F)nc2)c1Br (stereo not drawn) [Example I-114]
Post-emergence effect against ABUTH (ABUTH; 80 g/ha): 80% | Post-emergence effect against ABUTH (ABUTH; 320 g/ha): 90% | Post-emergence effect against ECHCG (ECHCG): 80% | Post-emergence effect against ECHCG in % (ECHCG; 80 g/ha): 90% | Post-emergence effect against ECHCG in % (ECHCG; 320 g/ha): 100% | Post-emergence effect against VERPE in % (VERPE; 20 g/ha): 80% | Post-emergence effect against VERPE in % (VERPE; 80 g/ha): 80% | Post-emergence effect against VERPE in % (VERPE; 320 g/ha): 90% | Post-emergence effect against AVEFA (AVEFA): 80% | Post-emergence effect against AMARE (AMARE; 20 g/ha): 80% | Post-emergence effect against AMARE (AMARE; 80 g/ha): 80% | Post-emergence effect against AMARE (AMARE; 320 g/ha): 90% | Post-emergence effect at 20 g/ha against TRZAS in % (TRZAS): 0% | Post-emergence effect against TRZAS (TRZAS; 80 g/ha, visual rating about 3 weeks after treatment, crop plant): 20% | Post-emergence effect against PHBPU in % (PHBPU; 80 g/ha): 80% | Post-emergence effect against PHBPU in % (PHBPU; 320 g/ha): 90% | Post-emergence effect against DIGSA (DIGSA): 80% | Post-emergence effect against SETVI in % (SETVI; 320 g/ha): 90% | Post-emergence effect against VIOTR in % (VIOTR; 320 g/ha): 90% | Post-emergence effect against LOLRI in % (LOLRI): 80% | Post-emergence effect against MATIN in % (MATIN; 80 g/ha): 80% | Post-emergence effect against MATIN in % (MATIN; 320 g/ha): 90%

CCOC(Oc1nn(-c2ccccc2F)c(-c2ccc(F)nc2)c1Cl)C(=O)OCC(C)C(=O)OC (racemic) [Example I-54]
Post-emergence effect against ABUTH (ABUTH; 320 g/ha): 80% | Post-emergence effect against ECHCG (ECHCG): 80% | Post-emergence effect against ECHCG in % (ECHCG; 80 g/ha): 90% | Post-emergence effect against ECHCG in % (ECHCG; 320 g/ha): 90% | Post-emergence effect against VERPE in % (VERPE; 20 g/ha): 80% | Post-emergence effect against VERPE in % (VERPE; 80 g/ha): 80% | Post-emergence effect against VERPE in % (VERPE; 320 g/ha): 90% | Post-emergence effect against AVEFA (AVEFA): 90% | Post-emergence effect against POLCO in % (POLCO; 80 g/ha): 80% | Post-emergence effect against POLCO in % (POLCO; 320 g/ha): 80% | Post-emergence effect against AMARE (AMARE; 320 g/ha): 80% | Post-emergence effect at 20 g/ha against TRZAS in % (TRZAS): 0% | Post-emergence effect against PHBPU in % (PHBPU; 80 g/ha): 90% | Post-emergence effect against PHBPU in % (PHBPU; 320 g/ha): 90% | Post-emergence effect against DIGSA (DIGSA): 90% | Post-emergence effect against SETVI in % (SETVI; 80 g/ha): 80% | Post-emergence effect against SETVI in % (SETVI; 320 g/ha): 90% | Post-emergence effect against VIOTR in % (VIOTR; 80 g/ha): 80% | Post-emergence effect against VIOTR in % (VIOTR; 320 g/ha): 80% | Post-emergence effect at 20 g/ha against ZEAMX in % (ZEAMX): 0% | Post-emergence effect against KCHSC in % (KCHSC): 80% | Post-emergence effect against ALOMY (ALOMY): 100% | Post-emergence effect against MATIN in % (MATIN; 20 g/ha): 80% | Post-emergence effect against MATIN in % (MATIN; 80 g/ha): 90% | Post-emergence effect against MATIN in % (MATIN; 320 g/ha): 90%

COC(=O)C(OC)Oc1nn(-c2ncccc2F)c(-c2ccc(F)nc2)c1I (stereo not drawn) [Example I-39]
pest or weed control at 320 g/ha (ABUTH; [1]): 90% | pest or weed control at 320 g/ha (ECHCG; [2]): 90% | pest or weed control at 320 g/ha (VERPE; 320 g/ha): 90% | pest or weed control at 320 g/ha (AVEFA): 100% | pest or weed control at 80 g/ha (POLCO; Fallopia convolvulus, 504 h, 80 g/ha, read-out: Post-emergence effect against POLCO in %): 90% | pest or weed control at 320 g/ha (POLCO; [6]): 90% | pest or weed control at 320 g/ha (AMARE; [3]): 80% | percent crop injury (phytotoxicity) to wheat, post-emergence at 20 g/ha (TRZAS): 0% | pest or weed control at 80 g/ha (PHBPU; Ipomoea purpurea, 504 h, 80 g/ha, read-out: Post-emergence effect against PHBPU in %): 90% | pest or weed control at 320 g/ha (PHBPU; [4]): 90% | pest or weed control at 320 g/ha (SETVI; 320 g/ha): 90% | pest or weed control at 80 g/ha (VIOTR; 80 g/ha): 80% | pest or weed control at 320 g/ha (VIOTR; 320 g/ha): 90% | plant injury at 20 g/ha (ZEAMX): 20% | pest or weed control at 320 g/ha (LOLRI): 100% | pest or weed control at 320 g/ha (ALOMY; Alopecurus myosuroides, 504 h, read-out: Post-emergence effect against ALOMY): 100%
